# From patent publication US20060183119A1, “Method for determining predisposition to a physiological reaction in a patient” (UNIVERSITE LAVAL, priority 2002, published 2006)
# Read-outs that look alike come from different tables or passages of the source.
# Assays:
# UGT1A7*3 = target: T1, UGT1A7*3 (Homo sapiens, UniProt Q9HAW7, N129K/R131K/W208R); test: SN-38 glucuronidation by microsomes of HEK293 cells expressing UGT1A7*3; type: in vitro ADME; set-up: key to Function (SN-38G formation versus *1 allele): High: no significant difference in activity compared to *1 allele.; Low: significantly lower SN-38G formation versus *1 allele
# T1 construct: expressed in transfected cells
# T1 sequence (Q9HAW7 26-530 N129K/R131K/W208R): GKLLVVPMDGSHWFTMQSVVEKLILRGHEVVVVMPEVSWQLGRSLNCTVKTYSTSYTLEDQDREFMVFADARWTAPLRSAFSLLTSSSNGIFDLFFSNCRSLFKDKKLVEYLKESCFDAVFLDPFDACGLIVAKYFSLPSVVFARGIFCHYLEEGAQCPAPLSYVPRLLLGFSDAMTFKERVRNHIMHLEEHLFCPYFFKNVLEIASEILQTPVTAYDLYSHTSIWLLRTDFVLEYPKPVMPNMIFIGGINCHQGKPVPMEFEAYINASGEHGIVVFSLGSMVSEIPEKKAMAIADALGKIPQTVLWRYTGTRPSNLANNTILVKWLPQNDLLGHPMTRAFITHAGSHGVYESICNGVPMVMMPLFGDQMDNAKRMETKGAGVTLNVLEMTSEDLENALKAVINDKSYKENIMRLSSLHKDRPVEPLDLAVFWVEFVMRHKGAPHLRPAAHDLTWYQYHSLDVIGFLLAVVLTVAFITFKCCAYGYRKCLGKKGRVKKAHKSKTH
# Protocol: Western blot analyses of UGT1A7 and UGT1A9 variants expressed in HEK293 cells were performed on microsomal proteins (10 μg) separated on a 10% SDS-polyacrylamide gel. After transferring the proteins, the membranes were probed with an anti-UGT1A RC-71 polyclonal antibody and with an anti-calnexin antibody. The relative levels of UGT1A9 (a) and UGT1A7 proteins (b) were determined by semi-quantitative densitometric analysis of the Enhanced chemiluminescence (ECL) image. The in vitro SN-38 activity was assessed using microsomal fractions prepared from HEK293 cells expressing the *1 and variant UGT1A9 (c) and UGT1A7 (d) alleles and incubated with 5 μM of SN-38 as described in Materials and Methods.
# For the determination of Vmax and Km.
# human UGT1A9*2 = target: T2, human UGT1A9*2 (Homo sapiens, UniProt O60656, C3Y); test: Glucuronidation by microsomes of HEK-293 cells stably expressing UGT1A9*2; settings: for Vmax / Km: SN-38 glucuronidation
# T2 sequence (O60656 26-530): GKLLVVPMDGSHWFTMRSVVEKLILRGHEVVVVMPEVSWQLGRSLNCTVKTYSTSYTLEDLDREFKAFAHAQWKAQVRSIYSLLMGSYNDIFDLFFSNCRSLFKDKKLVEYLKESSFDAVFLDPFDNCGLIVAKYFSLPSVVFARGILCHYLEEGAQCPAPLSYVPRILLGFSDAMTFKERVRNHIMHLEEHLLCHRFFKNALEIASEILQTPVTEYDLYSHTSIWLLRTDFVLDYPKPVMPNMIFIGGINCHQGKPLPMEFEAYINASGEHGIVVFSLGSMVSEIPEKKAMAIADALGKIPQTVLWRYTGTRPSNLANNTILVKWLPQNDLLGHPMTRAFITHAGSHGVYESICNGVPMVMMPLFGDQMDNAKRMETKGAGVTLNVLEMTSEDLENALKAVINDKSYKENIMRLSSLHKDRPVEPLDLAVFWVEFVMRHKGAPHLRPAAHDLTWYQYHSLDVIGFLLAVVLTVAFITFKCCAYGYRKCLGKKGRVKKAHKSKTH
# Protocol: Microsomal fractions from HEK-293 cells stably expressing human UGT1A9*1, UGT1A9*2 and UGT1A9*3 were used in enzymatic assays. Reactions (100 μl volume) contained 50 mM Tris-HCl, pH 7.3, 10 mM MgCl2, 100 μg/mL phosphatidylcholine, 1 mM UDP-glucuronic acid, 40 to 60 μg of membrane protein. […] Human liver microsome were incubated in the same condition for control. Reaction was stopped by the addition of 200 μL MeOH+1% HCl 2N, followed by centrifugation at 14000 rpm for 10 minutes. Supernatant was filtered through a 0.22 μm filter and 100 μL of water was added. For SN-38 and SN-38-glucuronide detection, 10 μL samples were injected on a liquid chromatographic system coupled to a fluorescence detector. Time-course experiments were realized to determine the linearity of the glucuronidation reaction.
# A liquid chromatographic method was developed to quantify SN-38 glucuronidation of UGT cell line-derived microsomes and human liver microsomes. Samples were analyzed using high performance liquid chromatography (Alliance 2695, Waters, Milford, Mass.). […] At a constant flow rate (0.7 ml/min), a linear gradient from 20 to 65% B was run over 3 min, held 0.8 min and a second gradient until 95% of B was run over 2 min and then re-equilibrated to 20% B over 2 min. The effluent from the HPLC system (Alliance 2695) was connected directly to a fluorescence detector (Waters, Milford, Mass.) using an excitation wavelength of […] and an emission of 460 nm. […] Determination of the glucuronidation rates obtained with other substrates was performed as currently known in the art.
# Microsomal fractions from HEK293 (40 to 60 μg) were added to a reaction mixture (100 μL) containing 50 mM Tris-HCl, pH 7.3, 10 mM MgCl2, 100 μg/mL phosphatidylcholine and 2 mM UDP-glucuronic acid. […] Commercially available human liver microsomes (Human Cell Culture Center Inc., Laurel, Md.) were incubated in the same conditions for all experiments. Time-course experiments were performed to determine the linearity of the glucuronidation reaction. For the determination of Vmax and Km. HEK293 cells stably expressing UGT1A9 enzymes were incubated in the presence of various concentrations of SN-38 ranging from 0.1 to 200 μM and incubated for 30 min as described above whereas UGT1A7 membranes preparations were incubated for 3 hours. […] Reactions with SN-38 were stopped by the addition of 200 μL MeOH+1% HCl 2N, followed by centrifugation at 14000×g for 10 minutes. The supernatants were filtered through a 0.22 μm membrane and 100 μL of water was added to the filtrate. For the detection of SN-38 and its glucuronide (SN-38G), 10 μL samples were injected in a liquid chromatographic system (HPLC) coupled to fluorescence detector as described below.
# A HPLC method was developed to quantify the rates of SN-38 glucuronidation from the various microsomal fractions under study. The HPLC system used was an Alliance 2695 (Waters, Milford, Mass.) equipped with a 50×3.2 mm Colombus C18 column (Phenomenex, Torrance, Calif.). […] Then a second gradient ranging from 65% to 95% solvent B was generated during the following 2 min. Finally, the column was re-equilibrated to 20% solvent B for 2 min. The column was connected to a fluorescence detector model 474 (Waters, Milford, Mass.) and the molecules were excited at a wavelength of 370 nm and an emission of 425 nm.
compound,measurement,setting,value
"CCc1c2c(nc3ccc(O)cc13)-c1cc3c(c(=O)n1C2)COC(=O)[C@]3(O)CC [SN-38, 7-ethyl-10-hydroxycamptothecin]",SN-38 glucuronidating activity of the allele (in words),UGT1A7*3,low
same,Function (SN-38G formation versus *1 allele),UGT1A7*3; in vitro experiments,Low
same,effect on conjugation rate of SN-38 (in words),"human UGT1A9*2; 5 μM of SN-38, versus wild type",no significant effect
same,Vmax,"human UGT1A9*2; 0.1 to 200 μM, mean±SD",324.38 ± 95.09 pmol/min/mg protein
same,Km,human UGT1A9*2; Table 5,5.15 ± 1.81 µM
same,Vmax,human UGT1A9*2; Table 5,324.68 ± 95.09
same,Km,"human UGT1A9*2; read-out: Apparent Km, 0.1 to 200 μM, mean±SD, Lineweaver-Burk",5.15 ± 1.81 µM
same,increased activity (SN-38 conjugation),"human UGT1A9*2; tyrosine at codon 3, versus UGT1A9*1",16.7%
